According to US20230381182A1, “Biomarkers Related to Immune Checkpoint Inhibitor Therapy and Methods of Using the Same” (Senda Biosciences, Inc., priority 2020, published 2023):

Tests used:
AhR = molecular target: T1, AhR (Homo sapiens, UniProt P35869); assay: DRE-Luciferase reporter assay (HepG2-Luc); type: cell-based; conditions: Human HepG2 liver carcinoma AhR-Lucia reporter cells; inhibition of luciferase activity induced by AhR activating ligand at its EC50
T1 construct: endogenous in cells; host or cells: Human HepG2 liver carcinoma AhR-Lucia reporter cells (DRE-luciferase reporter stably transfected)
T1 sequence (P35869 11-848): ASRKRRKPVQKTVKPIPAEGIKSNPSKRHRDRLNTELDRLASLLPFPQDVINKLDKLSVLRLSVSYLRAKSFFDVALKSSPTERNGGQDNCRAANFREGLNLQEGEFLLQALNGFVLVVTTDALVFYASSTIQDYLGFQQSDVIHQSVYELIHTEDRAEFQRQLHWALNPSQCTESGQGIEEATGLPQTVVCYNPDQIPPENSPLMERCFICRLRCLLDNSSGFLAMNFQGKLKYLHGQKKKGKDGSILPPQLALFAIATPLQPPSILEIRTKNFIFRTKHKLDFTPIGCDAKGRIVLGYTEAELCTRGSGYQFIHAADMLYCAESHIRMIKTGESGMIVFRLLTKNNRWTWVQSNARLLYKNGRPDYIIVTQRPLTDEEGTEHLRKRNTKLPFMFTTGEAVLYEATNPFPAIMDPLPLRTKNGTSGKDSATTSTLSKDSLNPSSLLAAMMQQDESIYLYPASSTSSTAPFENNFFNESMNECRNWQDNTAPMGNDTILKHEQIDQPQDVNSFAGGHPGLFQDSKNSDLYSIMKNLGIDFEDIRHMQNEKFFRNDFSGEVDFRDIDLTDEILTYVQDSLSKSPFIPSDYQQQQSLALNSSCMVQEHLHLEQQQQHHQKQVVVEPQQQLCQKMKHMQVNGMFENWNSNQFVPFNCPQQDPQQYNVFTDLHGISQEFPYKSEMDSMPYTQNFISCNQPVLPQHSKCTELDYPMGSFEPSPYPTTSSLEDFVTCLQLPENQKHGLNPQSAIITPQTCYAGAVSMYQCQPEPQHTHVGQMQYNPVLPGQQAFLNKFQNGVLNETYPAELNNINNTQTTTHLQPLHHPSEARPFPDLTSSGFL
From the text: AhR binds to dioxin responsive elements (DRE) upstream of the genes that it activates. One measure of AhR activity is activation of a reporter gene, such as luciferase, downstream of one or multiple DRE elements. Luciferase activity reflects activation and inhibition of AhR in the cells expressing this reporter. 20000 Human HepG2 liver carcinoma—AhR-Lucia reporter cells or Human HT29 colon adenocarcinoma-AhR reporter cells or other cell lines with a DRE-luciferase reporter stably transfected were plated in Eagle's Minimal Essential Medium, 10% heat-inactivated FBS, 1× non-essential amino acids Pen-Strep (10,000 U/mL) and Normocin (100 ug/mL) in plates (96-well, 384-well or other plates) and incubated overnight at 37° C. in a CO2 incubator and treated with and without AhR antagonists at a log dilution starting at 100 μM. […]
Cells were incubated for 24 or 48 hours or another time point and the supernatant was analyzed for determination of luciferase activity as a read-out of the AhR activation or inhibition. Luciferase was measured with the commercial kit QUANTI-Luc™ assay solution kit from InvivoGen following the manufacturer's instructions.
The level of luciferase with only agonist ligand added was the maximum signal while the luciferase with […] was the minimum signal. IC50 values were determined as the concentration which inhibits half of the luciferase activity.

CT26 cells = assay: Anti-tumor efficacy in CT26 mouse model unresponsive to anti-PD-L1 therapy; type: in vivo, Balb/c mice; conditions: Compound No. 30 10 mg/kg p.o. once a day over 14 days coadministered with anti-PD-L1 antibody 10 mg/kg i.p. every 3 days
Description: The anti-tumor efficacy of Compound No. 30 was studied in a CT26 mouse model which is unresponsive to anti-PD-L1 therapy only. CT26 cells were implanted subcutaneously into Balb/c mice which were then randomized and treated either with an […], an anti-PD-L1 antibody, or Compound No. 30 of Table 2 in combination with the anti-PD-L1 antibody. Compound No. 30 was dosed 10 mg/kg, p.o. once a day over 14 days and the anti-PD-L1 antibody was dosed at 10 mg/kg i.p. every 3 days.

Which IC50 (AhR) does the source give for O=c1c2cc(-c3ccc(OC(F)(F)F)cc3)nc(-c3cccnc3)c2ncn1C[C@@H](O)C(F)(F)F [compound 123, (R)-8-(pyridin-3-yl)-3-(3,3,3-trifluoro-2-hydroxypropyl)-6-(4-(trifluoromethoxy)phenyl)pyrido[3,4-d]pyrimidin-4(3H)-one] here?
Its IC50 is less than 100 nM.

What does the source list for C[C@H](n1cnc2c(-c3cnn(C)c3)nc(-c3ccc(Cl)cc3)cc2c1=O)C(C)(C)O [Compound No. 30, (S)-6-(4-chlorophenyl)-3-(3-hydroxy-3-methylbutan-2-yl)-8-(1-methyl-1H-pyrazol-4-yl)pyrido[3,4-d]pyrimidin-4(3H)-one]?
tumor volume (tumor growth curves) (CT26 cells; p=0.039, Mann-Whitney, FIG. 4A): reduction in tumor volume; tumor weight (CT26 cells; p=0.067, Mann-Whitney, FIG. 4B): reduction in tumor weight
